For orientation: IC50 means the concentration that inhibits the measured activity by half.

For this assay, the target named is T1, human neutrophil elastase (HNE) (Homo sapiens, UniProt P08246).
T1 construct: purchased Sigma E8140
T1 sequence (P08246 30-247 limits assumed): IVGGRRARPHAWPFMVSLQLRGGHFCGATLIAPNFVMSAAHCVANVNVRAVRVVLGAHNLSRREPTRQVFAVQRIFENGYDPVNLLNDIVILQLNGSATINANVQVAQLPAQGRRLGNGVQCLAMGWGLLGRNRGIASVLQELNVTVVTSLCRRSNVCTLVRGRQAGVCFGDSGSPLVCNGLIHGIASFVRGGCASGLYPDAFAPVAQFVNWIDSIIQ
The assay is described as follows: HNE enzyme assay (human neutrophil elastase enzyme activity assay). Particulars: human leukocyte elastase 0.00072 U/mL; substrate MeOSuc-Ala-Ala-Pro-Val-AMC 100 μM; 25° C. for 30 minutes; at least two separate experiments; read-out: HNE inhibition (HNE enzyme inhibition, IC50 values). Type of assay: biochemical. The procedure:
Compounds of the present invention were tested for potency in a human neutrophil elastase (HNE) enzyme activity assay.
Assays were performed in 96-well plates in a total assay volume of 100 μL. The final concentration of elastase enzyme (human leukocyte elastase, Sigma E8140) was 0.00072 U/mL. The peptide substrate (MeOSuc-Ala-Ala-Pro-Val-AMC, Calbiochem #324740) was used at a final concentration of 100 μM. The final concentration of DMSO was 1% in the assay buffer (0.05M Tris.HCl, 0.1M NaCl, 0.1M CaCl2, 0.0005% brij-35, pH 7.5). The enzymatic reaction was started by addition of the enzyme and incubated at 25° C. for 30 minutes. After incubation, the reaction was stopped by addition of soybean trypsin inhibitor (Sigma T9003) at a final concentration of 50 μg/well. Fluorescence was measured using a Molecular Devices fluorescence plate reader using 380 nm excitation and 460 nm emission wavelengths.
A dose response to each compound was performed and the effect of compound in each experiment was expressed as a percentage inhibition of the control enzyme fluorescence. Dose response curves were plotted and compound potency (IC50) was determined. Compounds were tested in at least two separate experiments.
Turning to `C[C@H](NC(=O)c1c(-c2ccnn2-c2ccc(C#N)cc2)n(C)n(-c2cccc(C(F)(F)F)c2)c1=O)c1ncc(CN(C)C)o1` [Example 5, 2′-(4-Cyano-phenyl)-2-methyl-5-oxo-1-(3-trifluoromethyl-phenyl)-2,5-dihydro-1H,2′H-[3,3′]bipyrazolyl-4-carboxylic acid [(S)-1-(5-dimethylaminomethyl-oxazol-2-yl)-ethyl]-amide], the IC50 was < 1 nM.

Turning to `Cc1cc(C[N+](C)(C)C[C@H]2CC[C@H](NC(=O)c3c(-c4ccnn4-c4ccc(C#N)cc4)n(C)n(-c4cccc(C(F)(F)F)c4)c3=O)CC2)no1` [Example 47, (Trans-4-{[2′-(4-cyano-phenyl)-2-methyl-5-oxo-1-(3-trifluoromethyl-phenyl)-2,5-dihydro-1H,2′H-[3,3′]bipyrazolyl-4-carbonyl]-amino}-cyclohexylmethyl)-dimethyl-(5-methyl-isoxazol-3-ylmethyl)-ammonium chloride], the IC50 was < 1 nM.

Consider `Cn1c(-c2ccnn2-c2ccc(C#N)cc2)c(C(=O)N[C@H]2CC[C@H](C[N+](C)(C)Cc3ccccc3)CC2)c(=O)n1-c1cccc(C(F)(F)F)c1` [Example 25, Benzyl-(trans-4-{[2′-(4-cyano-phenyl)-2-methyl-5-oxo-1-(3-trifluoromethyl-phenyl)-2,5-dihydro-1H,2′H-[3,3′]bipyrazolyl-4-carbonyl]-amino}-cyclohexylmethyl)-dimethyl-ammonium bromide], for which the IC50 is < 1 nM.

With `C[C@H](NC(=O)c1c(-c2ccnn2-c2ccc(C#N)cc2)n(C)n(-c2cccc(C(F)(F)F)c2)c1=O)C(=O)N1CCC[N+](C)(C)CC1` [Example 66, 4-((S)-2-{[2′-(4-Cyano-phenyl)-2-methyl-5-oxo-1-(3-trifluoromethyl-phenyl)-2,5-dihydro-1H,2′H-[3,3′]bipyrazolyl-4-carbonyl]-amino}-propionyl)-1,1-dimethyl-[1,4]diazepan-1-ium benzene sulphonate], the IC50 was < 1 nM.

Turning to `Cn1c(-c2ccnn2-c2ccc(C#N)cc2)c(C(=O)NCCC[N+](C)(C)C)c(=O)n1-c1cccc(C(F)(F)F)c1` [Example 20, (3-{[2′-(4-Cyano-phenyl)-2-methyl-5-oxo-1-(3-trifluoromethyl-phenyl)-2,5-dihydro-1H,2′H-[3,3′]bipyrazolyl-4-carbonyl]-amino}-propyl)-trimethyl-ammonium benzene sulphonate], the IC50 lay in the range of 1 to 10 nM.

`Cn1c(-c2ccnn2-c2ccc(C#N)cc2)c(C(=O)NC2C[C@H]3CC[C@@H](C2)[N+]3(C)C)c(=O)n1-c1cccc(C(F)(F)F)c1` (stereo partly drawn) [Example 28, (1S,3S,5R)-3-{[2′-(4-Cyano-phenyl)-2-methyl-5-oxo-1-(3-trifluoromethyl-phenyl)-2,5-dihydro-1H,2′H-[3,3′]bipyrazolyl-4-carbonyl]-amino}-8,8-dimethyl-8-azonia-bicyclo[3.2.1]octane benzene sulphonate]: the IC50 is < 1 nM.

Turning to `Cn1c(-c2ccnn2-c2ccc(C#N)cc2)c(C(=O)N[C@H]2C[C@H](C(=O)NCC[N+](C)(C)C)C2)c(=O)n1-c1cccc(C(F)(F)F)c1` [Example 51, {2-[(Trans-3-{[2′-(4-cyano-phenyl)-2-methyl-5-oxo-1-(3-trifluoromethyl-phenyl)-2,5-dihydro-1H,2′H-[3,3′]bipyrazolyl-4-carbonyl]-amino}-cyclobutanecarbonyl)-amino]-ethyl}-trimethyl-ammonium benzene sulphonate], the IC50 is < 1 nM.

As to `C[C@H](NC(=O)c1c(-c2ccnn2-c2ccc(C#N)cc2)n(C)n(-c2cccc(C(F)(F)F)c2)c1=O)c1ncc(C[N+](C)(C)C)o1` [Example 30, [2-((S)-1-{[2′-(4-Cyano-phenyl)-2-methyl-5-oxo-1-(3-trifluoromethyl-phenyl)-2,5-dihydro-1H,2′H-[3,3′]bipyrazolyl-4-carbonyl]-amino}-ethyl)-oxazol-5-ylmethyl]-trimethyl-ammonium benzene sulphonate], the IC50 was < 1 nM.

For `Cn1c(-c2ccnn2-c2ccc(C#N)cc2)c(C(=O)NC2CCN(C(=O)C[N+](C)(C)C)CC2)c(=O)n1-c1cccc(C(F)(F)F)c1` [Example 33, [2-(4-{[2′-(4-Cyano-phenyl)-2-methyl-5-oxo-1-(3-trifluoromethyl-phenyl)-2,5-dihydro-1H,2′H-[3,3′]bipyrazolyl-4-carbonyl]-amino}-piperidin-1-yl)-2-oxo-ethyl]-trimethyl-ammonium benzene sulphonate], the IC50 was < 1 nM.

Turning to `Cn1c(-c2ccnn2-c2ccc(C#N)cc2)c(C(=O)N[C@H]2CC[C@H](OC(=O)C[N+](C)(C)C)CC2)c(=O)n1-c1cccc(C(F)(F)F)c1` [Example 62, (Trans-4-{[2′-(4-cyano-phenyl)-2-methyl-5-oxo-1-(3-trifluoromethyl-phenyl)-2,5-dihydro-1H,2′H-[3,3′]bipyrazolyl-4-carbonyl]-amino}-cyclohexyloxycarbonylmethyl)-trimethyl-ammonium benzene sulphonate], the IC50 was < 1 nM.

`Cn1c(-c2ccnn2-c2ccc(C#N)cc2)c(C(=O)NC(C)(C)c2ncc(C[N+](C)(C)C)o2)c(=O)n1-c1cccc(C(F)(F)F)c1` [Example 48, [2-(1-{[2′-(4-Cyano-phenyl)-2-methyl-5-oxo-1-(3-trifluoromethyl-phenyl)-2,5-dihydro-1H,2′H-[3,3′]bipyrazolyl-4-carbonyl]-amino}-1-methyl-ethyl)-oxazol-5-ylmethyl]-trimethyl-ammonium benzene sulphonate]: the IC50 is < 1 nM.

On to `C[C@H](NC(=O)c1c(-c2ccnn2-c2ccc(C#N)cc2)n(C)n(-c2cccc(C(F)(F)F)c2)c1=O)C(=O)OCC1CC[N+](C)(C)CC1` [Example 38, 4-((S)-2-{[2′-(4-Cyano-phenyl)-2-methyl-5-oxo-1-(3-trifluoromethyl-phenyl)-2,5-dihydro-1H,2′H-[3,3′]bipyrazolyl-4-carbonyl]-amino}-propionyloxymethyl)-1,1-dimethyl-piperidinium benzene sulphonate], for which the half-maximal inhibitory concentration (IC50) was < 1 nM.

`C[C@H](NC(=O)c1c(-c2ccnn2-c2ccc(C#N)cc2)n(C)n(-c2cccc(C(F)(F)F)c2)c1=O)C(=O)N(C)CC[N+](C)(C)C` [Example 44, {2-[((S)-2-{[2′-(4-Cyano-phenyl)-2-methyl-5-oxo-1-(3-trifluoromethyl-phenyl)-2,5-dihydro-1H,2′H-[3,3′]bipyrazolyl-4-carbonyl]-amino}-propionyl)-methyl-amino]-ethyl}-trimethyl-ammonium benzene sulphonate]: the half-maximal inhibitory concentration (IC50) is < 1 nM.

Turning to `Cc1cc(C[N+](C)(C)C[C@H]2CC[C@H](NC(=O)c3c(-c4ccnn4-c4ccc(C#N)cc4)n(C)n(-c4cccc(C(F)(F)F)c4)c3=O)CC2)n(C)n1` [Example 46, (Trans-4-{[2′-(4-cyano-phenyl)-2-methyl-5-oxo-1-(3-trifluoromethyl-phenyl)-2,5-dihydro-1H,2′H-[3,3′]bipyrazolyl-4-carbonyl]-amino}-cyclohexylmethyl)-(2,5-dimethyl-2H-pyrazol-3-ylmethyl)-dimethyl-ammonium bromide], the IC50 is < 1 nM.

In the case of `Cn1c(-c2ccnn2-c2ccc(C#N)cc2)c(C(=O)N[C@H]2CC[C@H](C(=O)OC3CC[N+](C)(C)CC3)CC2)c(=O)n1-c1cccc(C(F)(F)F)c1` [Example 59, 4-(Trans-4-{[2′-(4-cyano-phenyl)-2-methyl-5-oxo-1-(3-trifluoromethyl-phenyl)-2,5-dihydro-1H,2′H-[3,3′]bipyrazolyl-4-carbonyl]-amino}-cyclohexanecarbonyloxy)-1,1-dimethyl-piperidinium benzene sulphonate], the IC50 is < 1 nM.

These data come from patent publication US10172830B2, “Pyrazolone compounds having human neutrophil elastase inhibitory properties” (CHIESI FARMACEUTICI S.P.A., priority 2016, dated 2019).
